Patent US7998999B2, “Cyclohexyl substituted pyrrolidinones as inhibitors of 11-beta-hydroxysteroid dehydrogenase 1” (Eli Lilly and Company, priority 2006, dated 2011)

What was measured:
[1] = biological target: recombinant human 11β-HSD type 1 enzyme (Homo sapiens, UniProt P28845); experiment: 11β-HSD Type 1 Enzyme Assay (NADPH fluorescence); assay type: biochemical; conditions: three hour incubation at room temperature, read-out: Human 11-βHSD1 IC50
Procedure: 11β-HSD Type 1 Enzyme Assay
Human 11β-HSD type 1 activity is measured by assaying NADPH production by fluorescence assay. Solid compounds are dissolved in DMSO to a concentration of 10 mM. Twenty microliters of each are then transferred to a column of a 96-well polypropylene Nunc plate where they are further diluted 50-fold followed by subsequent two-fold titration, ten times across the plate with additional DMSO using a Tecan Genesis 200 automated system. Plates are then transferred to a Tecan Freedom 200 system with an attached Tecan Temo 96-well head and an Ultra 384 plate reader. Reagents are supplied in 96-well polypropylene Nunc plates and are dispensed individually into black 96-well Molecular Devices High Efficiency assay plates (40 μL/well capacity) in the following fashion: 9 μL/well of substrate (2.22 mM NADP, 55.5 μM Cortisol, 10 mM Tris, 0.25% Prionex, 0.1% Triton ×100), 3 μL/well of water to compound wells or 3 μL to control and standard wells, 6 μL/well recombinant human 11β-HSD type 1 enzyme, 2 μL/well of compound dilutions. For ultimate calculation of percent inhibition, a series of wells are added that represent assay minimum and maximum: one set containing substrate with 667 μM carbenoxolone (background), and another set containing substrate and enzyme without compound (maximum signal). Final DMSO concentration is 0.5% for all compounds, controls and standards. Plates are then placed on a shaker by the robotic arm of the Tecan for 15 seconds before being covered and stacked for a three hour incubation period at room temperature. Upon completion of this incubation, the Tecan robotic arm removes each plate individually from the stacker and places them in position for addition of 5 μL/well of a 250 μM carbenoxolone solution to stop the enzymatic reaction. Plates are then shaken once more for 15 seconds then placed into an Ultra 384 microplate reader (355EX/460EM) for detection of NADPH fluorescence.

[2] = biological target: T1, 11β-HSD1 in primary human aortic smooth muscle cells (AoSMC) (Homo sapiens, UniProt P28845); experiment: Human Aortic Smooth Muscle Cell Assay (cortisone to cortisol conversion); assay type: cell-based; conditions: AoSMC induced with hTNFα, 10 μM cortisone, cortisol by time resolved immunoassay
T1 construct: containing 12 ng/mL hTNFα to induce expression of 11β-HSD1; endogenous in cells; host or cells: primary human aortic smooth muscle cells (AoSMC), induced with hTNFα
Procedure: Human Aortic Smooth Muscle Cell Assay
Primary human aortic smooth muscle cells (AoSMC) are cultured in 5% FBS growth medium to a passage number of 6, then pelleted by centrifugation and resuspended at a density of 9×10^4 cells/mL in 0.5% FBS assay medium containing 12 ng/mL hTNFα to induce expression of 11β-HSD1. Cells are seeded into 96-well tissue culture assay plates at 100 μL/well (9×10^3 cells/well) and incubated for 48 hours at 37° C., 5% CO2. Following induction, cells are incubated for 4 hours at 37° C., 5% CO2 in assay medium containing test compounds then treated with 10 μL/well of 10 μM cortisone solubilized in assay medium, and incubated for 16 hours at 37° C., 5% CO2. Medium from each well is transferred to a plate for subsequent analysis of cortisol using a competitive fluorescence resonance time resolved immunoassay. In solution, an allophycocyanin (APC)-cortisol conjugate and free cortisol analyte compete for binding to a mouse anti-cortisol antibody/Europium (Eu)-anti mouse IgG complex. Higher levels of free cortisol result in diminishing energy transfer from the Europium-IgG to the APC-cortisol complex resulting in less APC fluorescence. Fluorescent intensities for Europium and APC are measured using a LJL Analyst AD. Europium and APC excitation is measured using 360 nm excitation and 615 nm and 650 nm emission filters respectively. Time resolved parameters for Europium were 1000 μs integration time with a 200 μs delay. APC parameters are set at 150 μs integration time with a 50 μs delay. Fluorescent intensities measured for APC are modified by dividing by the Eu fluorescence (APC/Eu). This ratio is then used to determine the unknown cortisol concentration by interpolation using a cortisol standard curve fitted with a 4-parameter logistic equation. These concentrations are then used to determine compound activity by plotting concentration versus % inhibition, fitting with a 4-parameter curve and reporting the IC50.

Sequence of recombinant human 11β-HSD type 1 enzyme (P28845 whole entry): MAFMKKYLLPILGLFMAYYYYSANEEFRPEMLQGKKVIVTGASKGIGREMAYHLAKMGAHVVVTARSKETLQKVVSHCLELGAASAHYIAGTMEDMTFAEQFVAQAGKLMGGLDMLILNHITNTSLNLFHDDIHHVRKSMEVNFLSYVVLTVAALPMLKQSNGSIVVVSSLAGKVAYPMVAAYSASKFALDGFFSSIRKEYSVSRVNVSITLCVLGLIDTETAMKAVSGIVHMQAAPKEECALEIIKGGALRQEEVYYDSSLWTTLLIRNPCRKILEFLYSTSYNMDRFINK
T1 sequence (P28845 whole entry): as above

Row | Molecule | IC50 [1] | IC50 [2]
1 | 3-(4-Bromo-2-chloro-benzyl)-trans-1-(4-fluoro-cyclohexyl)-pyrrolidin-2-one [Example 10] | 0.25 µM | 0.033 µM
2 | O=C1C(Cc2ccc(Br)cc2Cl)CCN1[C@H]1CC[C@@H](F)CC1 (stereo partly drawn) [Example 11, 3-(4-Bromo-2-chloro-benzyl)-cis-1-(4-fluoro-cyclohexyl)-pyrrolidin-2-one] | 0.446 µM | 0.0075 µM
3 | O=C1C(Cc2c(Cl)cc(-c3cccnc3)cc2Cl)CCN1[C@H]1CC[C@@H](F)CC1 (stereo partly drawn) [Example 12, 3-(2,6-Dichloro-4-pyridin-3-yl-benzyl)-cis-1-(4-fluoro-cyclohexyl)-pyrrolidin-2-one] | 0.26 µM | 0.0039 µM
4 | Cn1cc(-c2cc(Cl)c(C[C@@H]3CCN(C4CCC(F)(F)CC4)C3=O)c(Cl)c2)cn1 [Example 6, (R)-3-[2,6-Dichloro-4-(1-methyl-1H-pyrazol-4-yl)-benzyl]-1-(4,4-difluoro-cyclohexyl)-pyrrolidin-2-one] | 0.302 µM | 0.0091 µM
5 | O=C1[C@H](Cc2c(Cl)cc(-c3ccc(F)cc3)cc2Cl)CCN1C1CCC(F)(F)CC1 [Example 3, (R)-3-(3,5-Dichloro-4′-fluoro-biphenyl-4-ylmethyl)-1-(4,4-difluoro-cyclohexyl)-pyrrolidin-2-one] | 0.364 µM | 0.0096 µM
